The text below walks through data of patent publication US10568945B2, “Compositions and methods for inducing liver regeneration by administering hepatocyte-derived exosomes” (University of Cincinnati, priority 2014, dated 2020).

In data set [1] the test system is primary mouse hepatocytes. Put plainly: Hepatocyte proliferation (BrdU incorporation). A general note: Dividing cells build labelled thymidine or BrdU into new DNA.
Experimental: (A) Primary mouse hepatocytes from wild-type mice were treated with increasing doses of exosomes derived from wild-type or CXCR2-deficient hepatocytes for 24 hrs. Cell proliferation was determined via BrdU incorporation. Data are mean±SEM with n=8-16 per group. *P<0.05 compared to control mice. **P<0.05 compared to untreated samples.
Hepatocytes were treated with hepatocyte-derived exosomes for 24 hrs. DNA incorporation of 5-bromo-20-deoxyuridine (BrdU) was employed to evaluate hepatocyte proliferation by exosomes, and data were normalized by the amount of viable cells and expressed as a ratio compared with medium alone. A commercial BrdU cell proliferation ELISA system (Abcam, Cambridge, UK) was used for this assay.
For data set [2], the system named is isolated wildtype and CXCR2-deficient hepatocytes. The data set can be described thus: Release of exosomes from isolated hepatocytes (CD81 antigen ELISA). It counts as cell-based, mouse. The following applies: GW4869 for 48 hrs. How it is done:
FIG. 2. CXCR2 regulates the neutral sphingomyelinase/ceramide system to release exosomes. (A) CXCR2-deficient cells show higher concentrations of ceramide than wildtype hepatocytes as determined by staining of isolated hepatocytes with Cy3-coupled anti-ceramide antibodies (A, upper panel). The intensity of the fluorescence staining in panel a reflects ceramide levels. […] Data are representative for 4 similar stainings. (B) Ceramide activity in hepatocytes was determined by a ceramide kinase assay. Data are mean±SEM with n=4 per group. *P<0.05 compared to wild-type mice. (C) Neutral sphingomyelinase activity is increased in CXCR2-deficient hepatocytes compared to wild-type mice. Data are mean±SEM with n=4 per group. *P<0.05 compared to wild-type mice. […] Cells were treated with GW4869 for 48 hrs in Williams media supplemented with exosome-depleted FBS and the number of exosomes was determined using differential centrifugation and detection of exosomes using a CD81 antigen ELISA kit. Data are mean±SEM with n=4 per group, *P<0.05 compared to wild-type mice. […]
Exosomes were purified from serum and the culture media. […] The size of exosomes in the serum and the culture medium was determined using a Zetasizer Nano (Malvern Instruments, Malvern, UK) and the number of exosomes was assessed by the CD81-antigen ELISA kit (System Biosciences).

In data set [3] the test system is sphingosine-1-phosphate (S1P) in hepatocytes. The data set can be described thus: Measurement of S1P in hepatocytes by ELISA. The data set is classed as cell-based, mouse. The following applies: pre-incubation of hepatocytes with SPHK I2 (20 μM). For orientation: An ELISA detects its analyte on a solid surface through an enzyme-linked reagent.

Structures are written as SMILES. “Also recorded” adds a separate entry of the source.

On to `Nc1ncnc2c1ncn2[C@@H]1O[C@H](COC(=O)c2ccc(S(=O)(=O)F)cc2)[C@@H](O)[C@H]1O` [FSBA], for which, in data set [1] (exosomes treated with FSBA, washed, then added to primary hepatocytes), the exosome-induced hepatocyte proliferation entry was “completely blocked”. Consider `O=C(/C=C/c1ccc(/C=C/C(=O)Nc2ccc(C3=NCCN3)cc2)cc1)Nc1ccc(C2=NCCN2)cc1` [GW4869], for which the “concentration/release of exosomes from hepatocytes” value in data set [2] is recorded as “dose dependently blocked; also recorded: dose-dependently reduced”. As for `Oc1ccc(Nc2nc(-c3ccc(Cl)cc3)cs2)cc1` [SPHK I2], in data set [3], the “exosome-induced production of S1P in hepatocytes” value was “prevented; also recorded: completely blocked”. The exosome-induced hepatocyte proliferation result in data set [1] (hepatocytes treated with 5-20 μM SPHK I2) is “completely abrogated”.
